Results on 1 compound are retold here after patent publication US10342806B2, “Hormone treatment for age-related hearing loss-presbycusis” (priority 2014, dated 2019).

One test concerns CBA/CaJ mice. Put plainly: Auditory brainstem response (ABR) thresholds in aging CBA/CaJ mice. The test is classed as in vivo, mouse. As for the experimental part:
After 60 (2 months) or 120 days (4 months) of ALD implantation, mice were anesthetized with a combination of ketamine and xylazine (100 μl i.p. of sterile saline containing 100 mg/ml ketamine and […]) for ABR measurements.
Auditory brainstem responses (ABRs) were measured again at 2 and 4 months after treatment started
Auditory brainstem responses were obtained as follows. The mice were anesthetized with a mixture of ketamine/xylazine (120 and 10 mg/kg body weight, respectively, intraperitoneal injection) prior to all experimental sessions. All recording sessions were completed in a soundproof acoustic chamber (IAC) with body temperature maintained with a heating pad. ABRs were measured using Biosig (TDT, Alachua, Fla.) data-acquisition system which recorded responses to 5 ms tone pips ([…] rise-fall times) with a cos^2 onset envelope, presented at rate of 29/sec. Wave I threshold was defined as the lowest intensity which elicited a clearly replicable response. ABRs were measured pre-treatment and post-treatment at 2 and 4 mon. The pre-treatment ABR threshold was used as the baseline to calculate the thresholds shifts. The wave I peak-to-peak amplitudes were analyzed. Data was compared using GraphPad Prism 5.0 (GraphPad Software, Inc. La Jolla, Calif., USA.
As male mice weigh on average 28.0 g at week 9 and female mice 23.1 g, doses of the anti-inflammatory were designed to bracket a dose of 5 mg/kg/day. A total five groups (n=8, half male and half female) were tested. Treatment continued for 120 days or until the mouse was euthanized. […] Death was confirmed by terminal phlebotomy/exsanguinations and perfusion.
Mice were treated at middle age, as above, using 0.0016 mg/day of D-aldosterone, a combination of 0.0016 mg/day of D-aldosterone and 0.042 mg/day of Aspirin; and a control placebo (saline).

The next test has as its system NKCC1 mRNA. Put plainly: NKCC1 mRNA in HT-29 cells, semiquantitative and real-time RT-PCR. The test is classed as cell-based, human. Particulars: ALD 1 μM, both RT-PCR methods. As for the experimental part:
Relative quantitative RT-PCR. Total RNA was extracted using the RNAeasy Mini Kit (Qiagen, Valencia Calif.). […] Primers used for qRTPCR were as follows: […]
The semiquantitative qRT-PCR reaction took place at 45° C. for 50 min. The competition between primer sets was excluded by adjusting the reaction condition.
Then, the primer products were PCR amplified directly. A first cycle of 10 min. at 95° C., 45 s at 65° C., and 1 min at 72° C. was followed by 45 s at 95° C., 45 s at 65° C., and 1 min at 72° C. for 25 cycles. The conditions were chosen so that the RNAs analyzed were in the exponential phase of amplification. Each set of reactions always included a no-sample negative control. We usually performed a negative control containing RNA instead of cDNA to rule out genomic DNA contamination.
The real-time RT-PCR reaction mixture was prepared using the SYBR-Green PCR Master Mix. Thermal cycling conditions were the same as in the semiquantitative method. Amplification specificity was checked using melting curves. Both negative and positive controls were included in each PCR reaction. All assays were carried out three times as independent PCR runs for each cDNA sample. […] Calculations of expression were performed with the […] method (Bustin, et al., Quantitative real-time RTPCR—a perspective. J Mol Endocrinol 34: 597-601, 2005).
A general note: Real-time PCR tracks product formation cycle by cycle.

In the next test the test system is NKCC1. Particulars: Jiang et al. 2003, cited from earlier work.

In the case of `C[C@]12CCC(=O)C=C1CC[C@@H]1[C@@H]2[C@@H](O)C[C@]2(C=O)[C@@H](C(=O)CO)CC[C@@H]12` [ALD, aldosterone], in the test with CBA/CaJ mice (12, 24, 32, 36 kHz at 2 months and 4 months, 0.0016 mg/day), the ABR frequency response entry was “showed improvement”. Also, the “ABR thresholds, control vs ALD treated group” value with CBA/CaJ mice (24, 32 and 36 kHz, at 120 days) was “significantly elevated in the control, non-treated, group relative to the ALD treated group”. Further, the “ABR shift / ABR thresholds” value with CBA/CaJ mice (24 kHz and 36 kHz, 2 and 4 month of treatment, vs placebo, Example 7) is given as “reduced ABR shifts”. The “ABR peak 1 amplitude” value in the test with CBA/CaJ mice (high sound levels, relative to the control group) is recorded as “increased significantly at high sound levels”. The “dose optimal for ABR threshold improvements” value with CBA/CaJ mice (slow-release subcutaneous pellets, doses 0.00048 to 0.00476 mg/day, 60 or 120 days, relative to age-matched control mice) came out at 0.0016 mg/day. In addition, the “NKCC1 mRNA” value in the test with NKCC1 mRNA was “no mRNA change”. For the same compound, the “NKCC1 transcripts, real-time polymerase chain reaction” value in the test with NKCC1 is “did not elevate NKCC1 transcripts”. Also, the “increase in NKCC1 activity” value in the test on NKCC1 (adrenalectomized rats, multiday treatment) is on record as 63%.
